Laboratory results from patent US12139531B2, “Compositions and methods useful in promoting milk production” (The Regents of the University of California, priority 2019, dated 2024).
Entries after “also recorded” stand apart in the source; their conditions may differ.

How the values were obtained:
HC11 cells [1] = assay: HC11 dome assay (milk dome formation on differentiation in DIP media); assay type: cell-based, mouse; settings: for dome formation in response to a titration of ECD fragments: HC11 cells, increasing ECD concentration
Procedure: To investigate ROBO1 function during alveologenesis, Robo1 gene expression was inhibited in HC11 cells (Robo1 KD). HC11 cells are a well-established, prolactin-responsive model of lactation,^19,20. Cells in which Robo1 gene expression was not inhibited are referred to as WT or Robo1+/+ herein. To measure milk production, cells were grown to confluence and then primed by treatment with epidermal growth factor (EGF, 10 ng/ml). The EGF is administered for three days in combination with charcoal-stripped fetal bovine serum, followed by one day of charcoal-stripped fetal bovine serum in the absence of EGF. These primed cells are then differentiated by treatment with dexamethasone (1 μg/ml), insulin (5 μg/ml) and prolactin (Prl, 5 μg/ml) media (DIP media) for between 3 and 5 days (FIG. 2A). Differentiation (Dif) results in the development of milk-filled domes (FIG. 2B). […] If the cells were left undifferentiated (Undif), there was little dome formation in either WT or Robo1−/− cells (FIG. 2B). Next, tissue from Robo1 knockout mice (Robo1−/−) and wild type mice (WT or Robo1+/+) mice was analyzed. Mammary glands were harvested from pregnant day 18 WT and Robo1−/− animals and alveologenesis analyzed by serially sectioning, carmine staining and then quantifying the area occupied by alveoli in sections located at top, middle and bottom portions of the tissue.
Dome number formation in response to a titration of ROBO1 ECD fragments was quantified. […] A bovine ROBO1-Ig5 construct was also tested in this assay and, as with the rat constructs, more domes were formed in response to treatment with higher concentrations of […] (FIG. 7H).
(§1) HC11 cells were grown in RPMI 1640 media (Gibco) supplemented with 10% fetal bovine serum (BioFluid Technologies), 5 μg/mL insulin (Sigma), and 10 ng/ml epidermal growth factor (EGF; Sigma). To induce differentiation in HC11 cells, confluent plates were given fresh media (RPMI 1640 media supplemented with 5% charcoal-stripped fetal bovine serum (BioFluid Technologies), 5 μg/mL insulin, and 10 ng/ml epidermal growth factor (EGF; Sigma) for 3 days followed by 24 hours of priming in priming medium (RPMI 1640 media supplemented with 5% charcoal-stripped fetal bovine serum (BioFluid Technologies), and 5 μg/mL insulin. After priming, DIP medium (RPMI 1640 media supplemented with 5% charcoal-stripped fetal bovine serum (BioFluid Technologies), 10^−6 M dexamethasone (Sigma), 5 μg/mL insulin, and 5 μg/mL prolactin (National Hormone and Peptide program) was added with fresh media every 24 hours.

HC11 cells [2] = assay: RT-qPCR of milk genes (WAP, Lalba) in differentiated HC11 cells; assay type: cell-based, mouse
Procedure: To determine whether the promotion of dome formation also results in higher milk production, HC11 cells were differentiated in the presence or absence of ROBO1-ECD fragments that were added to cells simultaneously with DIP media. Cells were harvested and the expression of WAP and Lalba assessed by RT-qPCR. […] WAP expression levels were not increased in cells treated with DCC-Ig4 (FIG. 7K). Next, Western blot analysis of WAP and PLIN2 was performed on cells treated with ROBO1-Ig5 and ROBO1-Ecto.
as §1
Total RNA was harvested from cells lysed in TRIzol reagent (Invitrogen) and phase separated according to manufacturer's protocol with an additional overnight RNA precipitation stem in ethanol (Macias et al., 2011). The RNA was further purified with TURBO DNase (Ambion) treatment. Total RNA quality was analyzed by agarose gel electrophoresis and quantified with an ND-1000 spectrophotometer (NanoDrop). cDNA libraries were prepared from 1 μg of total RNA using iScript cDNA synthesis kit (BioRad). Quantitative RT-PCR was performed in triplicates using light Cycler 480 SYBR Green I Master (Roche) and quantified using BioRad CFX'Connect Real-Time System and CFX Manager software (BioRad). […]

Notch signaling = assay: In vivo gamma secretase inhibitor treatment; RT-qPCR on FACS-purified alveolar progenitor cells; design: species or system mice; settings: GSI-treated vs vehicle-treated
Procedure: (§2) In further work, Notch signaling was inhibited to attempt to reverse the Robo1−/− phenotype. A γ-inhibitor that has been previously employed successfully in vivo to inhibit Notch in several different organs^26-28, including the mammary gland^29, was selected. Mature virgin animals were treated for […] with 10 mg/kg of the GSI or vehicle control^29 (FIG. 4C). After the treatment, mammary glands were harvested and analyzed by FACS and qPCR. It was observed that Robo1−/− mammary glands contain a higher number of alveolar progenitor cells relative to WT controls (FIG. 4D). […] GSI treatment had no effect on the number of alveolar progenitor cells in WT animals (FIG. 4D).
Robo1−/− alveolar progenitor cells (AVPs) expressed higher levels of Hey1 and Hes1 with vehicle treatment compared to AVPs from vehicle-treated WT animals (FIG. 4E). […] Vehicle-treated Robo1−/− alveolar progenitor cells (AVPs) expressed lower levels of Elf5 than AVPs from vehicle-treated WT animals (FIG. 4E). This is consistent with the observation of lower levels of ELF5 expression in Robo1−/− compared to Robo1+/+ mammary glands (FIG. 2H), and lower Elf5 in Robo1 knockdown compared to control (Scr) HC11 cells (FIG. 3C). […] In the absence of Robo1, NOTCH4 is activated—an effect that is reversed by either pharmacological inhibition of Notch signaling (FIGS. 4E, 3E, 3F, 3I-K) or knockdown of Notch4 gene expression (FIGS. 3F,G).
(§3) GSI inhibitor (R04929097; MedchemExpress) was orally administer at 10 mg/kg for 5 days as described^29. Mammary glands were harvest after 5 days of GSI or vehicle treatment and prepared for single cell analysis. Purified populations were collected and processed for RNA. Purified population numbers were analyzed using FlowJo.
Total RNA was harvested from cells lysed in TRIzol reagent (Invitrogen) and phase separated according to manufacturer's protocol with an additional overnight RNA precipitation stem in ethanol (Macias et al., 2011). The RNA was further purified with TURBO DNase (Ambion) treatment. Total RNA quality was analyzed by agarose gel electrophoresis and quantified with an ND-1000 spectrophotometer (NanoDrop). cDNA libraries were prepared from 1 μg of total RNA using iScript cDNA synthesis kit (BioRad). Quantitative RT-PCR was performed in triplicates using light Cycler 480 SYBR Green I Master (Roche) and quantified using BioRad CFX'Connect Real-Time System and CFX Manager software (BioRad). Results were normalized to GAPDH.

Notch = assay: In vivo gamma secretase inhibitor treatment; number of FACS-purified alveolar progenitor cells; design: species or system mice; settings: 10 mg/kg GSI orally, mature virgin
Procedure: as §2
Mechanically dissociated inguinal and thoracic mammary fat pads were prepared into cell suspension for FACS as described^17. AVPs were isolated using FITC-CD14 (clone Sa14-2; BioLegend) and […] (clone 2B8; BioLegend) as described^14.
as §3

NOTCH4 = assay: Cell fractionation and Western blot for HES1 and NOTCH4-ICD in HC11 cells; assay type: cell-based, mouse; settings: siR1+GSI, primed/differentiated HC11 cells, nuclear fraction
Procedure: Notch receptor activation can be regulated through direct interactions with binding partners^24. […] To address this possibility, co-immunoprecipitation experiments were performed using MBA-MD-231 cells lysates, which express detectable levels of all four Notch receptors (NOTCH1-4). Endogenous ROBO1 co-immunoprecipitated with NOTCH4, but not […], NOTCH2 or NOTCH3 (FIG. 3H and data not shown). Next, the expression and subcellular localization of the NOTCH4 intracellular domain (N4-ICD) and HES1 was examined in control (Scr) and Robo1 (siR1) knockdown HC11 cells. Expression of Robo1 was inhibited in HC11 cells that were then primed for differentiation as described above. […] This effect was not observed in control Robo1 knockdown cells engineered to overexpress Robo1 (siR1+o/e) or cells treated with the γ-secretase inhibitor GSI (siR1+GSI) (FIGS. 3I-3K).
To examine the effects of ROBO1-ECD fragments on Notch signaling, HC11 cells were treated with ROBO1-ECD fragments and Notch effector expression assessed. […] In addition, HC11 cells were treated with ROBO-Ig5 during differentiation. These cells were then fractionated and a Western blot performed to detect HES1 and NOTCH4-ICD (FIG. 8B).
Protein lysates were prepared by directly lysing adherent cells in 1× sample buffer supplemented with 5% beta-mercaptoethanol and boiled for 5 minutes. Protein lysate was resolved by SDS-PAGE and transferred to a PVDF for 90 minutes at 400 mA or overnight at 30 mA. Primary antibodies were used at the concentration indicated in Table 1 and incubated overnight at 4° C. HRP conjugated secondary antibodies (Jackson Labs) were used at 1:3000 and incubated for 45 minutes at room temp. All proteins were detected using Clarity ECL (BioRad) using a BioRad Chemi-Doc MP Imager and quantified using ImageLab software as previously described a.

HEK-293 cells = assay: Dot blot dilution assay of ROBO1-Ig5 secretion into media of transfected HEK-293 cells; assay type: cell-based; settings: heparin 300 ng/ml, media days two, four, six
Source text: Three recombinant ROBO1 ECD constructs were constructed: one comprising two immunoglobulin (Ig) domains (ROBO1-Ig2), another comprising all five Ig domains (ROBO1-Ig5), and another comprising the entire extracellular domain (ROBO1-Ecto) (FIG. 6A). In other constructs, HA (hemagglutinin), Myc, and human and mouse immunoglobulin Fc were fused to the Robo1 ECDs (FIG. 6A, 5F right). Extracellular domains of Deleted in Colorectal Cancer (DCC), a structurally similar Ig superfamily member to ROBO1, comprising either two Ig (DCC-Ig2) or four Ig (DCC-Ig4) domains and tagged with HA were constructed for use as negative controls (FIG. 6A, 5F right). Expression secretion of the constructs was confirmed by overexpressing the constructs in HEK293 cells and performing Western blots on cell lysates and media (FIG. 6B). […] Robo1-Ig5 as used herein was expressed in HEK-293 cells in the absence and presence of heparin (300 ng/ml). Media were collected from these ROBO1-Ig5 overexpressing cells on days two, four and six following plasmid transfection. Dot blot dilution assays of the collected media were performed to evaluate the relative secretion of this soluble ROBO1 ECD (FIG. 6C).

Molecule: CC(C)(C(=O)NCC(F)(F)C(F)(F)F)C(=O)N[C@@H]1C(=O)Nc2ccccc2-c2ccccc21 [GSI]
- decreased dome formation in Robo1 knockdown (KD) HC11 cells (HC11 cells [1]; Robo1 KD HC11 cells plus GSI): rescued
- decreased Lalba expression in Robo1 knockdown (siR1) HC11 cells (HC11 cells [2]; siR1+GSI): rescued
- decreased WAP expression in Robo1 knockdown (siR1) HC11 cells (HC11 cells [2]; siR1+GSI): rescued
- Hes1 expression in AVPs (Notch signaling; Robo1+/+ animals): less expression; also recorded: decreased
- Hey1 expression in AVPs (Notch signaling; Robo1+/+ animals): less expression; also recorded: decreased
- Elf5 expression in AVPs (Notch signaling; Robo1-/- animals): higher; also recorded: rescued
- Hes1 expression in AVPs (Notch signaling; Robo1-/- animals): lower; also recorded: rescued
- Hey1 expression in AVPs (Notch signaling; Robo1-/- animals): lower; also recorded: rescued
- number of alveolar progenitor cells (Notch; Robo1-/- animals): same number of alveolar progenitor cells as WT animals
- number of alveolar progenitor cells (Notch; WT animals): no effect
- higher nuclear HES1 in Robo1 knockdown cells (NOTCH4): not observed; also recorded: rescues the effect
- higher nuclear NOTCH4 intracellular domain (N4-ICD) in Robo1 knockdown cells (NOTCH4): not observed; also recorded: rescues the effect

Molecule: heparin
- secretion of soluble ROBO1-Ig5 (HEK-293 cells): trend of greater secretion
- secretion of soluble ROBO1-Ig5 (HEK-293 cells; listed as Heparin): modestly increases

B1: bovine ROBO1-Ig5: bovine ROBO1-Ig5 construct (Bos taurus ROBO1-Ig5, SEQ ID NO: 2) (protein, listed as Bos taurus)
chain: MIAEPAHFYLFGLICLCSGSRLRQEDFPPRIVEHPSDLIVSKGEPATLNCKAEGRPTPTIEWYKGGERVETDKDDPRSHRMLLPSGSLFFLRIVHGRKSRPDEGVYVCVARNYLGEAVSHNASLEVAILRDDFRQNPSDVMVAVGEPAVMECQPPRGHPEPTISWKKDGSPLDDKDERITIRGGKLMITYTRKSDAGKYVCVGTNMVGERESEVAELTVLERPSFVKRPSNLAVTVDDSAEFKCEARGDPVPTVRWRKDDGELPKSRYEIRDDHTLKIRKVTAGDMGSYTCVAENMVGKAEASATLTVQVGSEPPHFVVKPRDQVVALGRTVTFQCEATGNPQPAIFWRREGSQNLLFSYQPPQSSSRFSVSQTGDLTITNVQRSDVGYYICQTLNVAGSIITKAYLEVTDVIADRPPPVIRQGPVNQTVAVDGTLVLSCVATGSPVPTILWRKDGVLVSTQDSRIKQLETGVLQIRYAKLGDTGRYTCIASTPSGEATWSAYIEVQEF
- dome formation in response to a titration of ECD fragments (HC11 cells [1]): more domes; also recorded: increasing dome formation

B2: DCC-Ig4: extracellular domain of Deleted in Colorectal Cancer comprising four Ig domains, HA tagged, negative control (protein, listed as Rattus norvegicus)
chain: FTSLHFVSEPSDAVTMRGGNVLLNCSAESDRGVPVIKWKKDGLILALGMDDRKQQLPNGSLLIQNILHSRHHKPDEGLYQCEASLGDSGSIISRTAKVMVAGPLRFLSQTESITAFMGDTVLLKCEVIGDPMPTIHWQKNQQDLNPIPGDSRVVVLPSGALQISRLQPGDSGVYRCSARNPASTRTGNEAEVRILSDPGLHRQLYFLQRPSNVIAIEGKDAVLECCVSGYPPPSFTWLRGEEVIQLRSKKYSLLGGSNLLISNVTDDDSGTYTCVVTYKNENISASAELTVLVPPWFLNHPSNLYAYESMDIEFECAVSGKPVPTVNWMKNGDVVIPSDYFQIVGGSNLRILGVVKSDEGFYQCVAENEAGNAQSSAQLI
modifications: HA tag
notes: extracellular domain of Deleted in Colorectal Cancer comprising four Ig domains, HA tagged, negative control
- dome formation in response to a titration of ECD fragments (HC11 cells [1]): not observed
- WAP gene expression by RT-qPCR (HC11 cells [2]; HC11 cells, ECD fragments added simultaneously with DIP media, DCC-Ig4 0.7 μM): not increased; also recorded: no change
